# Data reported in patent US20140206559A1, “ASSAY FOR […] OF TUMOR CELLS” (PRESIDENT AND FELLOWS OF HARVARD COLLEGE, priority 2011, published 2014).
# System: invasive cells (PC-3 and DU-154)
# Experiment: three-dimensional in vitro invasion assay (CiGiP, paper-Matrigel layers, calcein stain)
# Assay type: cell-based
# Conditions: PC-3 and DU-154 prostate cancer cells in stacked paper-Matrigel layers; 1-5 days culture of stacked layers; inhibitor of actin-based motility present
# Description: The following invasive potential of the cell lines were assessed using the 3D in vitro assay as disclosed herein: Breast cancer cells; triple negative highly invasive cell line MDA-MB-231. Prostate cancer cells: highly invasive PC-3 and DU-154 isolate from bone and brain metastases, weakly invasive LNCaP and CWR-22 lines. Control cells included normal prostate epithelial cells (RWPE-1) and fibroblasts (HIN 3T3) as negative controls.
# Permeation of the suspension of cells in Matrigel into paper yielded thin (200 μm) layers of Matrigel with cells trapped within [Derda et al, PNAS 2009; Derda et al, PLoS submitted]. […] The inventors also assessed other combinations of different numbers of seed-substrates and different numbers of receiving-substrates.
# After additional 1-5 days of culture of the 3-D assay of stacked layers, the layers were separated by peeling apart and the amount of cells (e.g., the number, density or quantity) of cells in one or more receiving layer was measured, and optionally the amount of the amount of cells (e.g., the number, density or quantity) of cells in the seed-substrate layer. […]
# To measure the quantity of cells in each layer, the layers were incubated in solution of calcein which stains viable cells and the layers were imaged using fluorescent scanner at 100 micron resolution. […]
smiles,measurement,value
C=C1[C@@H](C)[C@H]2[C@H](Cc3ccccc3)NC(=O)[C@]23[C@H](OC(C)=O)/C=C/[C@@](C)(O)C(=O)[C@@H](C)C/C=C/[C@H]3[C@@H]1O [cytoclasin D],"invasion of the upper ""receiver-substrate"" layer by invasive cells",blocked
